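How tested: cells in 96-well plates exposed to compound for 48 hours at five concentrations. GI50 = concentration required for 50% inhibition of growth. TGI is the concentration that stops growth completely.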
Experiments:
Assay in all cases: NCI tumour cell line growth inhibition, 48 h
OVCAR-8 ovarian = test system: OVCAR-8 ovarian
MOLT-4 leukemia = test system: MOLT-4 leukemia
SNB-19 CNS = test system: SNB-19 CNS
MALME-3M melanoma = test system: MALME-3M melanoma
SNB-78 CNS = test system: SNB-78 CNS
HOP-18 NSCLC = test system: HOP-18 NSCLC
LOX IMVI melanoma = test system: LOX IMVI melanoma
SN12C renal = test system: SN12C renal
KM12 colon = test system: KM12 colon
OVCAR-5 ovarian = test system: OVCAR-5 ovarian
NCI-H460 lung = test system: NCI-H460 lung
K-562 leukemia = test system: K-562 leukemia
HT29 colon = test system: HT29 colon
HOP-92 NSCLC = test system: HOP-92 NSCLC
ACHN renal = test system: ACHN renal
SNB-75 CNS = test system: SNB-75 CNS
RXF-631 renal = test system: RXF-631 renal
UO-31 renal = test system: UO-31 renal
SK-MEL-5 melanoma = test system: SK-MEL-5 melanoma
SK-MEL-28 melanoma = test system: SK-MEL-28 melanoma
LXFL 529 NSCLC = test system: LXFL 529 NSCLC
COLO 205 colon = test system: COLO 205 colon
HOP-62 NSCLC = test system: HOP-62 NSCLC
M14 melanoma = test system: M14 melanoma
SK-MEL-2 melanoma = test system: SK-MEL-2 melanoma
EKVX NSCLC = test system: EKVX NSCLC
M19-MEL melanoma = test system: M19-MEL melanoma
SF-295 CNS = test system: SF-295 CNS
OVCAR-3 ovarian = test system: OVCAR-3 ovarian
SF-268 CNS = test system: SF-268 CNS
CCRF-CEM leukemia = test system: CCRF-CEM leukemia
NCI-H522 lung = test system: NCI-H522 lung
DMS 273 small cell lung = test system: DMS 273 small cell lung
RXF 393 renal = test system: RXF 393 renal
KM20L2 colon = test system: KM20L2 colon
XF 498 CNS = test system: XF 498 CNS
SF-539 CNS = test system: SF-539 CNS
CAKI-1 renal = test system: CAKI-1 renal
SR leukemia = test system: SR leukemia
RPMI-8226 leukemia = test system: RPMI-8226 leukemia
A498 renal = test system: A498 renal
HCT-116 colon = test system: HCT-116 colon
UACC-257 melanoma = test system: UACC-257 melanoma
NCI-H23 lung = test system: NCI-H23 lung
SK-OV-3 ovarian = test system: SK-OV-3 ovarian
HCC-2998 colon = test system: HCC-2998 colon
OVCAR-4 ovarian = test system: OVCAR-4 ovarian
HCT-15 colon = test system: HCT-15 colon
TK-10 renal = test system: TK-10 renal
DLD-1 colon = test system: DLD-1 colon
HL-60(TB) leukemia = test system: HL-60(TB) leukemia
IGROV1 ovarian = test system: IGROV1 ovarian
786-0 renal = test system: 786-0 renal
SW-620 colon = test system: SW-620 colon
A549 NSCLC = test system: A549 NSCLC
U251 CNS = test system: U251 CNS
UACC-62 melanoma = test system: UACC-62 melanoma
P388 leukemia = test system: P388 leukemia
MCF7 breast = test system: MCF7 breast
NCI-H226 lung = test system: NCI-H226 lung
P388/ADR leukemia = test system: P388/ADR leukemia
DMS 114 small cell lung = test system: DMS 114 small cell lung
SN12K1 renal = test system: SN12K1 renal
NCI/ADR-RES ovarian = test system: NCI/ADR-RES ovarian

How did the TGI (OVCAR-8 ovarian) turn out when `CCCCCCCCCCCCCCCCc1c(C(=O)OC)[nH]c(=S)[nH]c1=O` was run?
Its TGI is greater than 50 µM.

And the TGI (MOLT-4 leukemia)?
The TGI was greater than 50 µM.

What about the TGI (SNB-19 CNS) of the same compound?
Its TGI is greater than 50 µM.

And the TGI (MALME-3M melanoma)?
Its TGI is greater than 50 µM.

And the TGI (SNB-78 CNS)?
Its TGI is greater than 50 µM.

What about the TGI (HOP-18 NSCLC) of the same compound?
The TGI was greater than 50 µM.

And the TGI (LOX IMVI melanoma)?
Its TGI is greater than 50 µM.

And the TGI (SN12C renal)?
Its TGI is greater than 50 µM.

What about the TGI (KM12 colon) of the same compound?
The TGI was greater than 50 µM.

What about the TGI (OVCAR-5 ovarian) of the same compound?
Its TGI is greater than 50 µM.

What about the TGI (NCI-H460 lung) of the same compound?
Its TGI is greater than 50 µM.

What about the TGI (K-562 leukemia) of the same compound?
The TGI was greater than 50 µM.

What about the TGI (HT29 colon) of the same compound?
The TGI was greater than 50 µM.

And the TGI (HOP-92 NSCLC)?
The TGI was 41 µM.

And the TGI (ACHN renal)?
The TGI was greater than 50 µM.

What about the TGI (SNB-75 CNS) of the same compound?
The TGI was greater than 50 µM.

What about the TGI (RXF-631 renal) of the same compound?
Its TGI is greater than 50 µM.

What about the TGI (UO-31 renal) of the same compound?
Its TGI is greater than 50 µM.

And the TGI (SK-MEL-5 melanoma)?
The TGI was greater than 50 µM.

And the TGI (SK-MEL-28 melanoma)?
Its TGI is greater than 50 µM.

And the TGI (LXFL 529 NSCLC)?
Its TGI is greater than 50 µM.

And the TGI (COLO 205 colon)?
Its TGI is greater than 50 µM.

What about the TGI (HOP-62 NSCLC) of the same compound?
Its TGI is greater than 50 µM.

And the TGI (M14 melanoma)?
The TGI was greater than 50 µM.

What about the TGI (SK-MEL-2 melanoma) of the same compound?
Its TGI is greater than 50 µM.

What about the TGI (EKVX NSCLC) of the same compound?
The TGI was greater than 50 µM.

And the TGI (M19-MEL melanoma)?
The TGI was greater than 50 µM.

And the TGI (SF-295 CNS)?
Its TGI is greater than 50 µM.

What about the TGI (OVCAR-3 ovarian) of the same compound?
The TGI was greater than 50 µM.

And the TGI (SF-268 CNS)?
Its TGI is greater than 50 µM.

And the TGI (CCRF-CEM leukemia)?
The TGI was greater than 50 µM.

And the TGI (NCI-H522 lung)?
Its TGI is greater than 50 µM.

What about the TGI (DMS 273 small cell lung) of the same compound?
Its TGI is greater than 50 µM.

What about the TGI (RXF 393 renal) of the same compound?
The TGI was greater than 50 µM.

What about the TGI (KM20L2 colon) of the same compound?
Its TGI is greater than 50 µM.

And the TGI (XF 498 CNS)?
The TGI was greater than 50 µM.

And the TGI (SF-539 CNS)?
Its TGI is greater than 50 µM.

And the TGI (CAKI-1 renal)?
Its TGI is greater than 50 µM.

What about the TGI (SR leukemia) of the same compound?
Its TGI is 32 µM.

What about the TGI (RPMI-8226 leukemia) of the same compound?
Its TGI is greater than 50 µM.

And the TGI (A498 renal)?
Its TGI is greater than 50 µM.

And the TGI (HCT-116 colon)?
Its TGI is greater than 50 µM.

What about the TGI (UACC-257 melanoma) of the same compound?
The TGI was greater than 50 µM.

And the TGI (NCI-H23 lung)?
Its TGI is greater than 50 µM.

And the TGI (SK-OV-3 ovarian)?
Its TGI is greater than 50 µM.

What about the TGI (HCC-2998 colon) of the same compound?
Its TGI is greater than 50 µM.

And the TGI (OVCAR-4 ovarian)?
Its TGI is greater than 50 µM.

What about the TGI (HCT-15 colon) of the same compound?
The TGI was greater than 50 µM.

What about the TGI (TK-10 renal) of the same compound?
Its TGI is greater than 50 µM.

And the TGI (DLD-1 colon)?
The TGI was greater than 50 µM.

What about the TGI (HL-60(TB) leukemia) of the same compound?
Its TGI is greater than 50 µM.

What about the TGI (IGROV1 ovarian) of the same compound?
Its TGI is greater than 50 µM.

What about the TGI (786-0 renal) of the same compound?
The TGI was greater than 50 µM.

And the TGI (SW-620 colon)?
Its TGI is greater than 50 µM.

And the TGI (A549 NSCLC)?
Its TGI is greater than 50 µM.

What about the TGI (U251 CNS) of the same compound?
Its TGI is greater than 50 µM.

And the TGI (UACC-62 melanoma)?
The TGI was greater than 50 µM.

With `O=c1oc2c(ccc3occc32)c(N2CCCCC2)c1-c1ccccc1` as the compound, how does the TGI (OVCAR-8 ovarian) read?
Its TGI is greater than 100 µM.

And the TGI (MOLT-4 leukemia)?
The TGI was greater than 31.7 µM.

And the TGI (SNB-19 CNS)?
The TGI was greater than 100 µM.

What about the TGI (MALME-3M melanoma) of the same compound?
Its TGI is greater than 100 µM.

What about the TGI (SNB-78 CNS) of the same compound?
The TGI was greater than 100 µM.

What about the TGI (HOP-18 NSCLC) of the same compound?
The TGI was greater than 100 µM.

And the TGI (LOX IMVI melanoma)?
The TGI was greater than 100 µM.

What about the TGI (SN12C renal) of the same compound?
Its TGI is greater than 100 µM.

And the TGI (KM12 colon)?
The TGI was greater than 100 µM.

And the TGI (OVCAR-5 ovarian)?
Its TGI is greater than 100 µM.

And the TGI (NCI-H460 lung)?
Its TGI is greater than 100 µM.

And the TGI (K-562 leukemia)?
Its TGI is greater than 100 µM.

What about the TGI (HT29 colon) of the same compound?
The TGI was greater than 100 µM.

And the TGI (HOP-92 NSCLC)?
The TGI was greater than 100 µM.

And the TGI (SNB-75 CNS)?
The TGI was greater than 100 µM.

What about the TGI (UO-31 renal) of the same compound?
The TGI was greater than 30.3 µM.

What about the TGI (SK-MEL-5 melanoma) of the same compound?
The TGI was greater than 100 µM.

What about the TGI (SK-MEL-28 melanoma) of the same compound?
The TGI was greater than 100 µM.

And the TGI (COLO 205 colon)?
Its TGI is greater than 100 µM.

What about the TGI (HOP-62 NSCLC) of the same compound?
The TGI was greater than 100 µM.

What about the TGI (P388 leukemia) of the same compound?
Its TGI is greater than 100 µM.

And the TGI (SK-MEL-2 melanoma)?
The TGI was greater than 100 µM.

And the TGI (EKVX NSCLC)?
Its TGI is greater than 100 µM.

And the TGI (M19-MEL melanoma)?
Its TGI is greater than 100 µM.

What about the TGI (SF-295 CNS) of the same compound?
The TGI was greater than 100 µM.

What about the TGI (OVCAR-3 ovarian) of the same compound?
The TGI was greater than 100 µM.

And the TGI (SF-268 CNS)?
The TGI was greater than 100 µM.

What about the TGI (CCRF-CEM leukemia) of the same compound?
The TGI was greater than 59.5 µM.

And the TGI (NCI-H522 lung)?
Its TGI is greater than 100 µM.

And the TGI (MCF7 breast)?
Its TGI is greater than 100 µM.

And the TGI (DMS 273 small cell lung)?
Its TGI is greater than 100 µM.

What about the TGI (RXF 393 renal) of the same compound?
The TGI was greater than 100 µM.

What about the TGI (KM20L2 colon) of the same compound?
Its TGI is greater than 100 µM.

What about the TGI (XF 498 CNS) of the same compound?
Its TGI is greater than 100 µM.

And the TGI (SF-539 CNS)?
The TGI was greater than 100 µM.

And the GI50 (NCI-H226 lung)?
The GI50 was greater than 100 µM.

And the TGI (NCI-H226 lung)?
Its TGI is greater than 100 µM.

What about the TGI (A498 renal) of the same compound?
The TGI was greater than 100 µM.

What about the TGI (HCT-116 colon) of the same compound?
Its TGI is greater than 100 µM.

And the TGI (NCI-H23 lung)?
Its TGI is greater than 100 µM.

What about the GI50 (SK-OV-3 ovarian) of the same compound?
Its GI50 is greater than 100 µM.

What about the TGI (SK-OV-3 ovarian) of the same compound?
The TGI was greater than 100 µM.

And the TGI (P388/ADR leukemia)?
The TGI was greater than 100 µM.

What about the TGI (DMS 114 small cell lung) of the same compound?
Its TGI is greater than 100 µM.

And the TGI (HCC-2998 colon)?
Its TGI is greater than 100 µM.

And the TGI (OVCAR-4 ovarian)?
The TGI was greater than 100 µM.

And the TGI (SN12K1 renal)?
The TGI was greater than 100 µM.

And the TGI (HCT-15 colon)?
Its TGI is greater than 100 µM.

And the TGI (DLD-1 colon)?
The TGI was greater than 100 µM.

And the TGI (HL-60(TB) leukemia)?
The TGI was 80.1 µM.

What about the TGI (IGROV1 ovarian) of the same compound?
The TGI was greater than 100 µM.

And the TGI (SW-620 colon)?
Its TGI is greater than 100 µM.

And the TGI (A549 NSCLC)?
Its TGI is greater than 100 µM.

And the TGI (U251 CNS)?
The TGI was greater than 100 µM.

And the TGI (NCI/ADR-RES ovarian)?
The TGI was greater than 100 µM.

What about the TGI (UACC-62 melanoma) of the same compound?
Its TGI is greater than 100 µM.
